Publication PMC10248798, “Arabidopsis nicotianamine synthases comprise a common core-NAS domain fused to a variable autoinhibitory C terminus” (The Journal of Biological Chemistry, 2023)

Legend:
Format in all cases: biochemical
MetK = molecular target: T1, MetK (Escherichia coli, UniProt P0A817); assay: one-pot coupled synthesis of nicotianamine with MtnN and AtNAS1; conditions: coupled to AtNAS1 and MtnN
T1 construct: full length, C-terminal His6 tag (pET-21b), Ni-NTA purified from E. coli
T1 sequence (P0A817 2-384): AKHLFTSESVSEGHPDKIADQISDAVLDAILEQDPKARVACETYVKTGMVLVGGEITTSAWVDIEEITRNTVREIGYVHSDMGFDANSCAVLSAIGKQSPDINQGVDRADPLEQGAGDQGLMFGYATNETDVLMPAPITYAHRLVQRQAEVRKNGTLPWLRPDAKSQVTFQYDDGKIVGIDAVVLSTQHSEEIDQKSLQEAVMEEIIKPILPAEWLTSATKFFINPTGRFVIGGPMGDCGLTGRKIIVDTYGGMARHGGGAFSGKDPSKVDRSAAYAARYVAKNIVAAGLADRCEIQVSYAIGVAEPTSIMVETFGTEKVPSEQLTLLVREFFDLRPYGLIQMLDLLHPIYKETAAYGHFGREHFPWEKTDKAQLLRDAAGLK

MtnN = molecular target: T2, MtnN (Escherichia coli, UniProt P0AF12); assay: TLC; conditions: 2.5 mM MTA, 50 mM Tris/HCl pH 8.7, 30 °C
T2 construct: full length, C-terminal His6 tag (pET-21b), Ni-NTA purified from E. coli
T2 sequence (P0AF12 whole entry): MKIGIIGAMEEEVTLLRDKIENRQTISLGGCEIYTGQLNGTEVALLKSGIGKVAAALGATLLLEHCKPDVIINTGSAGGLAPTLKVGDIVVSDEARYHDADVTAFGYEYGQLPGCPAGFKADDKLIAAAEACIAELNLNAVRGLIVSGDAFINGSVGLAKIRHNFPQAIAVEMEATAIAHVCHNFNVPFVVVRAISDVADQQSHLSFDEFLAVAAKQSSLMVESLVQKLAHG

AtNAS3 ΔC42 = molecular target: T3, AtNAS3 ΔC42 (Arabidopsis thaliana, UniProt O80483); assay: coupled spectrophotometric assay (MtnN/AdeD, A265); conditions: 0.125 mM SAM, 50 mM Tris-HCl pH 8.7, 37 °C
T3 construct: gene NAS3; core-NAS domain, 42 C-terminal residues removed, C-terminal His6 tag (pET-21b, NheI/NotI), E. coli
T3 sequence (O80483 1-278): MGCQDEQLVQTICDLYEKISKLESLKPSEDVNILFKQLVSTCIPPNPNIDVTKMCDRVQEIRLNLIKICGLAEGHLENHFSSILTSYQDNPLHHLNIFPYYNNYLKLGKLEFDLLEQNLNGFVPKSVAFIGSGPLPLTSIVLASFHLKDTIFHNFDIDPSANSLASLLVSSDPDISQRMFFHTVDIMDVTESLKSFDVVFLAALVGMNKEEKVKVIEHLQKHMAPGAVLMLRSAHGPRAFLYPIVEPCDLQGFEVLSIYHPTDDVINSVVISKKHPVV

AtNAS4 ΔC47 = molecular target: T4, AtNAS4 ΔC47 (Arabidopsis thaliana, UniProt Q9C7X5); assay: coupled spectrophotometric assay (MtnN/AdeD, A265); conditions: 0.125 mM SAM, 50 mM Tris-HCl pH 8.7, 37 °C
T4 construct: gene NAS4; core-NAS domain, 47 C-terminal residues removed, C-terminal His6 tag (pET-21b), E. coli
T4 sequence (Q9C7X5 1-277): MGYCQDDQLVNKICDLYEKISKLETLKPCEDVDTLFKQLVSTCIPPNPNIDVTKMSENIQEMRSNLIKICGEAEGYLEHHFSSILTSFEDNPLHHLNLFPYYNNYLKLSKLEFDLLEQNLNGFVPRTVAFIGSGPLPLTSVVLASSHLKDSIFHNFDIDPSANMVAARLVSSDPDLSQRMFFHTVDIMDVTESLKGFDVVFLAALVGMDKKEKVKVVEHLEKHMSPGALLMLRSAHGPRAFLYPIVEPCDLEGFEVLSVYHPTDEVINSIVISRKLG

AdeD = molecular target: T5, AdeD (Escherichia coli, UniProt P31441); assay: TLC; conditions: 3 mM adenine, 50 mM Tris/HCl pH 8.7, 30 °C
T5 construct: gene ade; full length, C-terminal His6 tag (pET-21b), Ni-NTA purified from E. coli
T5 sequence (P31441 whole entry): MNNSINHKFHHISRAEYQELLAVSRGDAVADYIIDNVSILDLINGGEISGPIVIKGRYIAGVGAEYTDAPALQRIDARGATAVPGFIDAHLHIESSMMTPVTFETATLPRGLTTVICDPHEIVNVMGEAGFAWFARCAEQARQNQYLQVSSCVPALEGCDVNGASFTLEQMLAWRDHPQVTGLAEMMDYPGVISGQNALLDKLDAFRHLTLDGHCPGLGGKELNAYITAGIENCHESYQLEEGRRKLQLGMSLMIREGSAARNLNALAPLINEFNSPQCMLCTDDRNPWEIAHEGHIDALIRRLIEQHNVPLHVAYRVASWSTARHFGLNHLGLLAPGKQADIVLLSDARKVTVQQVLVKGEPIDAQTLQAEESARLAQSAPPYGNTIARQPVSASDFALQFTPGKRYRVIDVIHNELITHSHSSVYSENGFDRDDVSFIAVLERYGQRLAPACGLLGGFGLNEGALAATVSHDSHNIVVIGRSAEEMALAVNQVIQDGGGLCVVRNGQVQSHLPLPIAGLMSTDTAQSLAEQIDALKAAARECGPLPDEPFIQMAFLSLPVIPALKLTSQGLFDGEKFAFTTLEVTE

Nc1ncnc2c1ncn2[C@@H]1O[C@H](COP(=O)(O)OP(=O)(O)OP(=O)(O)O)[C@@H](O)[C@H]1O [ATP]
one-pot coupled synthesis of nicotianamine with MtnN and AtNAS1 (MetK; co-substrate L-methionine): we combined MetK with MtnN and AtNAS1 for the one-pot synthesis of NA from ATP

CSCC[C@H](N)C(=O)O [L-methionine]
one-pot coupled synthesis of nicotianamine with MtnN and AtNAS1 (MetK; co-substrate ATP): we combined MetK with MtnN and AtNAS1 for the one-pot synthesis of NA from ATP

CSC[C@H]1O[C@@H](n2cnc3c(N)ncnc32)[C@H](O)[C@@H]1O [MTA]
TLC (MtnN): MtnN- and AdeD, were active in NAS reaction buffer when assayed individually with their respective substrates

C[S+](CC[C@H](N)C(=O)O)C[C@H]1O[C@@H](n2cnc3c(N)ncnc32)[C@H](O)[C@@H]1O (stereo partly drawn) [SAM]
coupled spectrophotometric assay (MtnN/AdeD, A265) (AtNAS3 ΔC42): The truncated variants of AtNAS3 and AtNAS4 also showed strongly increased activities | coupled spectrophotometric assay (MtnN/AdeD, A265) (AtNAS4 ΔC47): The truncated variants of AtNAS3 and AtNAS4 also showed strongly increased activities

Nc1ncnc2[nH]cnc12 [adenine]
TLC (AdeD): MtnN- and AdeD, were active in NAS reaction buffer when assayed individually with their respective substrates
